Results from PubChem BioAssay AID1745844 (Carcinogenic Potency Database (CPDB), 2022).
Activity calls are given as the source filed them. The rule behind the calls is not given here.

System: rodent lifetime carcinogenesis bioassay, tumor incidence TD50
Assay: carcinogenic potency in animals, long-term in vivo studies, CPDB compilation (AID 1745844)
Conditions: in feed

Compound: NC(=O)C(=Cc1ccc([N+](=O)[O-])o1)c1ccco1
- TD50 (hamster, strain Syrian Golden, females, site: esophagus, lesion: papilloma, dosed 94 weeks, study length 94 weeks): 2340 mg/kg/day
- TD50 (hamster, strain Syrian Golden, females, site: forestomach, lesion: several types, types named in the paper, dosed 94 weeks, study length 94 weeks): 59.1 mg/kg/day
- TD50 (hamster, strain Syrian Golden, females, site: forestomach, lesion: squamous-cell carcinoma, dosed 94 weeks, study length 94 weeks): 2340 mg/kg/day
- TD50 (hamster, strain Syrian Golden, males, site: esophagus, lesion: several types, types named in the paper, dosed 94 weeks, study length 94 weeks): 328 mg/kg/day
- TD50 (hamster, strain Syrian Golden, males, site: esophagus, lesion: squamous-cell carcinoma, dosed 94 weeks, study length 94 weeks): 2180 mg/kg/day
- TD50 (hamster, strain Syrian Golden, males, site: forestomach, lesion: several types, types named in the paper, dosed 94 weeks, study length 94 weeks): 30.5 mg/kg/day
- TD50 (hamster, strain Syrian Golden, males, site: forestomach, lesion: squamous-cell carcinoma, dosed 94 weeks, study length 94 weeks): 164 mg/kg/day
- TD50 (mouse, strain CDF1, females, site: forestomach, lesion: papilloma, dosed 78 weeks, study length 104 weeks): 714 mg/kg/day
- TD50 (mouse, strain CDF1, females, site: forestomach, lesion: squamous-cell carcinoma, dosed 78 weeks, study length 104 weeks): 2540 mg/kg/day
- TD50 (mouse, strain CDF1, females, site: lung, lesion: one or several types, types not named, dosed 78 weeks, study length 104 weeks): 16400 mg/kg/day
- TD50 (mouse, strain CDF1, males, site: forestomach, lesion: papilloma, dosed 78 weeks, study length 104 weeks): 753 mg/kg/day
- TD50 (mouse, strain CDF1, males, site: forestomach, lesion: squamous-cell carcinoma, dosed 78 weeks, study length 104 weeks): 928 mg/kg/day
- TD50 (mouse, strain CDF1, males, site: lung, lesion: one or several types, types not named, dosed 78 weeks, study length 104 weeks): 9270 mg/kg/day
- TD50 (mouse, strain DDY, males, site: any site (literature study), lesion: several types, types named in the paper, dosed 44 weeks, study length 80 weeks): 60.8 mg/kg/day
- TD50 (mouse, strain DDY, males, site: forestomach, lesion: several types, types named in the paper, dosed 44 weeks, study length 80 weeks): 60.8 mg/kg/day
- TD50 (mouse, strain DDY, males, site: forestomach, lesion: squamous-cell carcinoma, dosed 44 weeks, study length 80 weeks): 72.9 mg/kg/day
- TD50 (mouse, strain DDY, males, site: lung, lesion: adenoma, dosed 44 weeks, study length 80 weeks): 299 mg/kg/day
- TD50 (mouse, strain ICR/Jcl, females, site: all sites, lesion: leukemia, dosed 62 weeks, study length 62 weeks): 1800 mg/kg/day
- TD50 (mouse, strain ICR/Jcl, females, site: forestomach, lesion: several types, types named in the paper, dosed 62 weeks, study length 62 weeks): 95 mg/kg/day
- TD50 (mouse, strain ICR/Jcl, females, site: forestomach, lesion: squamous-cell carcinoma, dosed 62 weeks, study length 62 weeks): 225 mg/kg/day
- TD50 (mouse, strain ICR/Jcl, females, site: liver, lesion: hepatocellular tumor, dosed 104 weeks, study length 104 weeks): 7070 mg/kg/day (inactive)
- TD50 (mouse, strain ICR/Jcl, males, site: forestomach, lesion: several types, types named in the paper, dosed 62 weeks, study length 62 weeks): 90.3 mg/kg/day
- TD50 (mouse, strain ICR/Jcl, males, site: forestomach, lesion: squamous-cell carcinoma, dosed 62 weeks, study length 62 weeks): 208 mg/kg/day
- carcinogen call (mouse, strain ICR/Jcl, males, site: liver, lesion: hepatocellular tumor, dosed 104 weeks, study length 104 weeks): negative (inactive)
- TD50 (rat, strain Sprague-Dawley, females, site: mammary gland, lesion: adenocarcinoma, dosed 46 weeks, study length 66 weeks): 26.4 mg/kg/day
- TD50 (rat, strain Sprague-Dawley, females, site: mammary gland, lesion: several types, types named in the paper, dosed 46 weeks, study length 66 weeks): 11.4 mg/kg/day
- TD50 (rat, strain Wistar, females, site: forestomach, lesion: papilloma, dosed 78 weeks, study length 104 weeks): 424 mg/kg/day
- TD50 (rat, strain Wistar, females, site: liver, lesion: hemangioendothelial sarcoma, dosed 78 weeks, study length 104 weeks): 2000 mg/kg/day
- TD50 (rat, strain Wistar, females, site: mammary gland, lesion: several types, types named in the paper, dosed 78 weeks, study length 104 weeks): 74.7 mg/kg/day
- TD50 (rat, strain Wistar, males, site: forestomach, lesion: papilloma, dosed 78 weeks, study length 104 weeks): 409 mg/kg/day
- TD50 (rat, strain Wistar, males, site: liver, lesion: hemangioendothelial sarcoma, dosed 78 weeks, study length 104 weeks): 1600 mg/kg/day
- TD50 (rat, strain Wistar, males, site: mammary gland, lesion: several types, types named in the paper, dosed 78 weeks, study length 104 weeks): 1200 mg/kg/day

Compound: C#CC(OC(N)=O)(c1ccccc1)c1ccc(Cl)cc1 (configuration not stated)
- TD50 (rat, strain Harlan, males, site: any site (literature study), lesion: several types, types named in the paper, dosed 72 weeks, study length 94 weeks): 3.88 mg/kg/day
- TD50 (rat, strain Harlan, males, site: brain, lesion: several types, types named in the paper, dosed 72 weeks, study length 94 weeks): 462 mg/kg/day
- TD50 (rat, strain Harlan, males, site: duodenum, lesion: adenocarcinoma, dosed 72 weeks, study length 94 weeks): 24.9 mg/kg/day
- TD50 (rat, strain Harlan, males, site: jejunum, lesion: adenocarcinoma, dosed 72 weeks, study length 94 weeks): 8.78 mg/kg/day
- TD50 (rat, strain Harlan, males, site: liver, lesion: several types, types named in the paper, dosed 72 weeks, study length 94 weeks): 58.5 mg/kg/day
